In PMC12752627, “Discovery of a Potent and Selective TEAD Degrader with Durable Degradation Activity” (Advanced Science, 2025):

Experiments:
IKZF1-3, GSPT1 = experiment: HiBiT off-target assessment (IMiD substrates); type: cell-based; details: HiBiT-tagged cell lines, 6 h
Procedure: (§1) HiBiT cells were inoculated into 96‐well flat‐bottomed tissue culture plates at a density of 50 000 cells per well, followed by adding degraders into the wells using the I‐DOT dispenser. After 6 h of incubation, the cells were lysed and assayed for degradation using the Nano‐Glo HiBiT Lysis Assay System (Promega, #N3030). Luminescence signals were read using an Envision plate reader (Revvity) and the data were analyzed using GraphPad Prism 9.5 software.

TEAD1 [1] = target: T1, TEAD1 (Homo sapiens, UniProt P28347+Q96SW2); experiment: Immunoblot of TEAD1 degradation in TEAD1-mNeonGreen fusion NCI-H1299 cells; type: cell-based
T1 construct: endogenous in cells; host or cells: NCI-H1299 (TEAD1-mNeonGreen knock-in)
Procedure: (§2) Immunoblotting was carried out as previously described.^[ [29] ^] Cells were seeded in 6‐well plates (Yeasen, #84011ES50) at a density of 1 million cells per well. The following day, cells were treated with compounds at the required concentrations, with the DMSO concentration kept below 0.4‰ to prevent toxic effects on the cells. The collected cell pellets were washed three times with PBS (Meilunbio, #MA0015) and resuspended in 120 µL of RIPA lysis buffer (Meilunbio, #MA0151) containing 1% protease inhibitor (Meilunbio, #MB2678‐2). The cells were then sonicated on ice and centrifuged at 12 000 rpm for 15 min at 4 °C to remove cellular debris. Protein concentrations were determined using the BCA Protein Quantification Kit (Meilunbio, #MA0082‐1). The protein samples were normalized, boiled at 99 °C for 10 min, and then subjected to electrophoresis on a 10% SDS‐PAGE gel. The separated protein bands were transferred to nitrocellulose membranes, blocked with TBST containing 5% BSA, and incubated with the indicated primary antibodies. Finally, the blots were imaged using an Amersham Typhoon NIR imager.

[2] = Pharmacokinetic evaluation in ICR male mice; type: in vivo; details: mouse, plasma
NCI-H226 cells = experiment: DIA proteomics in NCI-H226 cells; type: cell-based, Homo sapiens; details: 100 nM, 24 h
Procedure: (§3) Cells were seeded in 6‐well plates at 1 × 10⁶ cells well^−1 and treated with 100 nM KG‐FP‐003 (n = 3). After 24 h incubation, cells were harvested, washed with ice‐cold PBS, and stored at −80 °C. Cell pellets were lysed in 4 volumes of lysis buffer (1% SDS, 1% protease inhibitor cocktail) followed by 3 min sonication on ice. After centrifugation (12 000 g, 10 min, 4 °C), supernatants were collected for BCA protein quantification. Proteins were reduced with 5 mM DTT (56 °C, 30 min), alkylated with 11 mM iodoacetamide (RT, dark, 15 min), and diluted with 200 mM TEAB to reduce urea concentration below 2 M. Trypsin digestion (1:50 enzyme‐to‐protein ratio) was performed at 37 °C overnight followed by additional 4 h digestion. Peptides were desalted using Strata‐X SPE columns. […] MS analysis was performed on a timsTOF Pro mass spectrometer in dia‐PASEF mode (ESI voltage: 1.75 kV; scan range: 300–1500 m z^−1). DIA data were processed using DIA‐NN (v1.8) against the Homo_sapiens_9606_SP_20 231 220.fasta database (20429 entries) with reversed decoys, using trypsin as the cleavage enzyme. Fixed modifications included N‐terminal methionine excision and carbamidomethylation of cysteine, with FDR set at <1%.

A172 cells = experiment: DIA proteomics in A172 cells; type: cell-based, Homo sapiens; details: 100 nM, 24 h
Procedure: as §3

BMF, CTGF expression = experiment: RT-qPCR in MSTO-211H cells; type: cell-based
Procedure: Cells were seeded in 6‐well plates at a density of 1 million cells per well. The following day, different concentrations of compounds were added, and cells were collected after 24 h. For wash‐out experiments, cells were pre‐treated with compounds at indicated concentrations for 6 h, then cells were washed three times with PBS, and an equal volume of complete medium without compounds was added and incubated for another 18 h.
RNA was isolated and purified from the samples using the EZ‐10 Rotary Column Total RNA Isolation Kit (Sangon Biotech, B615012). After measuring the RNA concentration, 200 ng of purified RNA was used for genomic DNA removal and reverse transcription to cDNA with the HiScript III 1st Strand cDNA Synthesis Kit (+DNA wiper) (Vazyme, R312‐02). The resulting cDNA was then prepared into a reaction mix according to the ChamQ SYBR qPCR Mix (Vazyme, #q711‐02). Real‐time PCR analysis was performed using a QuantStudio 6 Pro real‐time PCR system (Thermo Fisher Scientific). Relative gene expression was calculated using the 2‐∆∆CT method. The primers used in this study were provided in the Supporting Information (Table S1, Supporting Information)

TEAD1 [3] = target: T2, TEAD1 (Homo sapiens, UniProt P28347); experiment: HiBiT degradation assay, HEK293T HiBiT-TEAD1; type: cell-based; set-up: endogenous in cells; host or cells: HEK293T wild-type and CRBN-knockout; details: 6 h
Procedure: as §1
The ribonucleoprotein (RNP) complex was prepared by mixing 2 µg of NLS‐Cas9‐EGFP nuclease (Novoprotein, #E379‐01A), 50 pmol of sgRNA, 10 µL of electrotransfer solution, and 50 pmol of designed donor DNA, then incubated for 10 min at room temperature. One million HEK293T cells were resuspended in 10 µL of electrotransfection solution and mixed with 10 µL of the RNP complex. Electroporation was performed using a Celetrix SP100 electroporator at 480 V. After electroporation, the cells were transferred to antibiotic‐free DMEM complete medium for overnight culture. The following day, EGFP‐positive cells were sorted using a Sony MA 900 cell sorter, plated in a 96‐well cell culture plate (Servicebio, #CCP‐96H), and cultured for 4 weeks. After this period, positive clones were screened using the Nano‐Glo HiBiT Lytic Detection system (Promega, #N3030).

TEAD1 [4] = target: T2, TEAD1; experiment: Immunoblot in wild-type / CRBN-knockout HEK293T cells and rescue experiment; type: cell-based; set-up: endogenous in cells; host or cells: HEK293T wild-type and CRBN-knockout; details: 6 h treatment
Procedure: as §2

T2 sequence (P28347 whole entry): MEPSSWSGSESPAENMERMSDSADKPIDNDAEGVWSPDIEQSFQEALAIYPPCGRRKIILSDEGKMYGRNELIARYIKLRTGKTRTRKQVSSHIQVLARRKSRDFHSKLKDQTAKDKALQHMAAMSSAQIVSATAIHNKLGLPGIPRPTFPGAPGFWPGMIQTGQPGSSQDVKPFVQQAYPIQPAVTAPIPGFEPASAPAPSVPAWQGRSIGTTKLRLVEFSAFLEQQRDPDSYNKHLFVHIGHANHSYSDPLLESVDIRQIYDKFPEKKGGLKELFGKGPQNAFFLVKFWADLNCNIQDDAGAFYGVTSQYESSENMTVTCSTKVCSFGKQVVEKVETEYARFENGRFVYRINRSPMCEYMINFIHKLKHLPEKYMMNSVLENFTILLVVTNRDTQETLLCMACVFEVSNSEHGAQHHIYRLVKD
T1 sequence (P28347 whole entry, the tested form may be a part): as the sequence (P28347 whole entry) above
T1 sequence (Q96SW2 whole entry, the tested form may be a part): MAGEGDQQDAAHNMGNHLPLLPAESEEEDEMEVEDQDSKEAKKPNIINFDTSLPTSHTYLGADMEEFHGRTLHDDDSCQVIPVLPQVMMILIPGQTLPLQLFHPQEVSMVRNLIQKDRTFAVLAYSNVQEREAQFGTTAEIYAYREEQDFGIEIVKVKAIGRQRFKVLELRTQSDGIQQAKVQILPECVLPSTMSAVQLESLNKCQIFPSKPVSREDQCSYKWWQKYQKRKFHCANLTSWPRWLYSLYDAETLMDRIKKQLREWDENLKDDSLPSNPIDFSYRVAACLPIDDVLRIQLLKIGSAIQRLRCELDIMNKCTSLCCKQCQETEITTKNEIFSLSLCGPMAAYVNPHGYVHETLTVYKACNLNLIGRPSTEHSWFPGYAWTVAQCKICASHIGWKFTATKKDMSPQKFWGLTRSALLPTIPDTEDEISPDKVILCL
T1 sequence (Q16531 2-1140 partner limits assumed): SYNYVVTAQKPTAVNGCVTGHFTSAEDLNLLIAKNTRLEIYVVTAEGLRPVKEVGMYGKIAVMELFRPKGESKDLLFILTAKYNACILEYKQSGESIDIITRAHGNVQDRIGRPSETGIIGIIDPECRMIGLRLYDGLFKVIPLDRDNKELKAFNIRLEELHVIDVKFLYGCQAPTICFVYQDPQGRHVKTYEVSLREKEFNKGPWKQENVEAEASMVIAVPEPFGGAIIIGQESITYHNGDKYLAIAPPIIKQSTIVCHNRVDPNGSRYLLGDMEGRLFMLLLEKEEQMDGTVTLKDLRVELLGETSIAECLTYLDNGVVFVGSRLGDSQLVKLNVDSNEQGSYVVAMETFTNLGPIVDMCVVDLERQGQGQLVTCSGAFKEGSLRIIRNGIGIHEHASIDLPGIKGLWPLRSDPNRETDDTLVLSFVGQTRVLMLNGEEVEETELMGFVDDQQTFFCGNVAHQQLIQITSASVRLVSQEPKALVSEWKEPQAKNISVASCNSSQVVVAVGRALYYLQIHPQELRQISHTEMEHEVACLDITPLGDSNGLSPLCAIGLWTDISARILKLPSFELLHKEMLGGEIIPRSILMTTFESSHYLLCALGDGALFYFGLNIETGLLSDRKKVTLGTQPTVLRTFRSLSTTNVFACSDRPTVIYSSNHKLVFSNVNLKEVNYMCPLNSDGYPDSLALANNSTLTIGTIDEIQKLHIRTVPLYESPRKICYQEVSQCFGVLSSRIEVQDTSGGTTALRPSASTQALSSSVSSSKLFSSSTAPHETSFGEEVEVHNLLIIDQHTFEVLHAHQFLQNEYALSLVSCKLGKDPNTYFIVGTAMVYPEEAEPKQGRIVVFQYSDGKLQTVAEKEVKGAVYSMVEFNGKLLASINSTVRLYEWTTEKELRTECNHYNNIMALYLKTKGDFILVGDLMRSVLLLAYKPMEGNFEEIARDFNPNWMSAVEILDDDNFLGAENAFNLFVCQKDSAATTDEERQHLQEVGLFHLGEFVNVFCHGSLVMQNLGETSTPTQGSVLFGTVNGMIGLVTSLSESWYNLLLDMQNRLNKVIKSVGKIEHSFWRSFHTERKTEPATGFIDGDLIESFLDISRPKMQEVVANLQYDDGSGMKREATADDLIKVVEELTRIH

Compound: CNC(=O)c1cc2c(c(F)c1-c1c(Cl)c(F)cc3c1C[C@@](CN[C@H]1CC[C@H](C(=O)N4CCC(CC5CCN(C(=O)COc6ccc(N7CCC(=O)NC7=O)c(C)c6)CC5)CC4)CC1)(c1ccccc1)O3)[C@@H](O)[C@@H](C)C2 [KG-FP-003]
- Off-target degradation of IMiD substrates IKZF1-3 and GSPT1 (IKZF1-3, GSPT1): no off‐target degradation was detected
- Target degradation by immunoblot (TEAD1 [1]; 10 nM, 6 h, TEAD1-mNeonGreen NCI-H1299 cells): significant target degradation
- Time to near-complete depletion of TEAD1 (TEAD1 [1]; 100 nM, TEAD1-mNeonGreen fusion NCI-H1299 cells): ≤ 2 h
- AUC(0-inf) ([2]; IP 5 mg/kg): 2610 ng·h/mL
- AUC(0-t) ([2]; IP 5 mg/kg): 2560 ng·h/mL
- Cmax ([2]; IP 5 mg/kg): 2010 ng/mL
- MRT inf ([2]; IP 5 mg/kg): 3.13 h
- Tmax ([2]; IP 5 mg/kg): 0.42 h
- half-life ([2]; IP 5 mg/kg): 5.42 h
- bioavailability ([2]; IP 5 mg/kg, read-out: F% (bioavailability)): 99%
- AUC(0-inf) ([2]; IV 2 mg/kg): 1060 ng·h/mL
- AUC(0-t) ([2]; IV 2 mg/kg): 1040 ng·h/mL
- Cmax ([2]; IV 2 mg/kg): 4430 ng/mL
- MRT inf ([2]; IV 2 mg/kg): 1.4 h
- Tmax ([2]; IV 2 mg/kg): 0 h
- half-life ([2]; IV 2 mg/kg): 3.57 h
- Proteome-wide selectivity (NCI-H226 cells): selective downregulation of TEAD1 and TEAD4
- Proteome-wide selectivity (A172 cells): significantly and selectively downregulated TEAD1 protein levels
- Expression of TEAD target gene CTGF (qPCR) (BMF, CTGF expression): downregulation
- Expression of pro-apoptotic gene BMF (qPCR) (BMF, CTGF expression): dramatic upregulation
- DC50 (TEAD1 [3]): 6 ± 4 nM
- TEAD1 Dmax (TEAD1 [3]): ≈ 90%
- Dmax (TEAD1 [3]; HEK-293T): 93 ± 1%
- TEAD degradation in CRBN-null HEK293T cells (TEAD1 [4]): minimal
